Molecular target: T1, enzyme R39 (soluble exocellular D-alanyl-D-alanine carboxypeptidase produced by Actinomadura R39) (Actinomadura sp., UniProt P39045)
T1 construct: soluble exocellular D-alanyl-D-alanine carboxypeptidase produced by Actinomadura R39, obtained by the procedure described in J.-M. Frere et al; made in house; host or cells: Actinomadura R39 (natural producer, secreted enzyme)
Assay: Test 1, rapid test (5 minutes): strip test for β-lactam antibiotics in milk using enzyme R39
Assay type: binding
Conditions: for Intensity 1st band: scale 0 to 10, reference band 6, 47° C., 3 min incubation + 2 min migration
Method: The identifier used in this example is soluble exocellular D-alanyl-D-alanine carboxypeptidase produced by Actinomadura R39, obtained by the procedure described in J.-M. Frere et al., Antimicrobial Agents and Chemotherapy, 18(4), 506-510 (1980).
250 μl of an aqueous solution of enzyme R39 having a concentration of 1 mg/ml are dialysed for 24 hours against 500 ml of HNM buffer (Hepes 10 mM, pH 8, NaCl 10 mM, MgCl2 5 mM). To this dialysed solution of enzyme R39 are then added 2 ml of bicarbonate buffer (0.1 M sodium bicarbonate, pH 9) and 250 μl of a solution of N-hydroxysuccinimide 6-(biotinamido)caproic ester having a concentration of 5 mg/ml in anhydrous DMF. This solution is stirred gently in the LABINCO stirrer for tubes on a rotary axis (available from VEL, Belgium) at a rate of 2 revolutions/minute for 3 hours at room temperature and away from light. The solution thus obtained is dialysed against the HNM buffer ([…]) for 24 hours. In this way a solution of biotinylated enzyme R39 is obtained which is diluted in HNM-BSA buffer (Hepes 500 mM; pH 8, NaCl 500 mM, MgCl2 250 mM, BSA 10 mg/ml) to a concentration of 100 μg of enzyme R39 per ml of buffer. This solution is stored at −20° C.
As the marker use is made of particles of gold having a diameter of 40 nm on which a goat anti-biotin antibody has been deposited in the form of suspensions in a 2 mM aqueous sodium tetraborate solution, with a pH of 7.2, stabilized by 0.1% of sodium azide (available from British Biocell (Ref. GAB40)). The optical density of these suspensions at 520 nm is approximately 10 and the protein concentration is approximately 24 μg/ml.
The biotinylated enzyme R39 solution prepared in Example 2.2.1 is diluted 25 times with the HNM-BSA buffer (Hepes 500 mM, pH 8, NaCl 500 mM, MgCl2 250 mM, BSA 10 mg/ml). At room temperature, 17.5 parts by volume of this dilute biotinylated enzyme R39 solution, 9.27 parts by volume of the gold particle suspension used to label the enzyme R39 and 6 parts by volume of reference gold particle suspension are mixed (see Example 2.3).
The first capture substance makes it possible to fix the identifiers coupled with the free markers present in excess relative to the quantity of antibiotic present in the sample.
Assay devices containing membranes (2), (3) and (4) are used, assembled in accordance with the procedure described in Example 1.1. The membrane (3) of these devices carries on the proximal side the capture substance described in Example 2.4.1. and on the distal side the capture substance described in Example 2.4.2. The capture substances were deposited in accordance with the procedure described in Example 1.2.
Seven samples of milk are prepared, containing 0; 2; 4; 5; 6; 8 and 10 ppb, respectively, of penicillin G. Each of these solutions is then analysed as follows.
An aliquot is taken of 200 μl of milk sample and […] of solution A prepared in Example 2.2.3, and is placed in an Eppendorf tube. This mixture is incubated at 47° C. for 3 minutes. An assay device is then placed vertically in the Eppendorf tube such that the first end of the assay device is in contact with the mixture. The mixture is allowed to migrate over the assay device while the assembly is incubated at 47° C. for 2 minutes.
An intensity value ranging from 0 to 10 is awarded to the bands detected, the value 10 being given to the most intense band and the value 0 being given to the least intense band. On this scale, a value 6 is awarded to the reference band. The intensity of the signal observed in the first detection band is inversely proportional to the quantity of penicillin G present in the sample.
In this example, the test is considered to be positive when the first band has an intensity which is lower than that of the reference band. The results shown in Table 1 indicate that this test makes it possible to detect in 5 minutes down to 4 ppb of penicillin G in a milk sample.

T1 sequence (P39045 50-515): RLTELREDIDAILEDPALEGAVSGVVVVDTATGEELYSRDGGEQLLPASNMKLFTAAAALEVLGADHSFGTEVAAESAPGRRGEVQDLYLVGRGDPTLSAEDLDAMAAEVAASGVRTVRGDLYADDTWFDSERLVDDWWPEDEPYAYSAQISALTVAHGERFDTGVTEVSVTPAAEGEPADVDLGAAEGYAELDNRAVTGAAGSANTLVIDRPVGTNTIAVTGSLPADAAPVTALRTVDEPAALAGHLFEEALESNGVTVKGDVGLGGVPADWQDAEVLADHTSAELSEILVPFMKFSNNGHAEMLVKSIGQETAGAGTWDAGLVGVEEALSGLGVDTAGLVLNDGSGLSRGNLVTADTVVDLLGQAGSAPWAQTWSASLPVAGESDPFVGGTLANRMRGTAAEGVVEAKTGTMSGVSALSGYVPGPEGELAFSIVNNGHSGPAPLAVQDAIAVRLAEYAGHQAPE

CC1(C)S[C@@H]2[C@H](NC(=O)Cc3ccccc3)C(=O)N2[C@H]1C(=O)O [Penicillin G, penicillin G]
Intensity 1st band (2 ppb penicillin G in milk): 8
Intensity 1st band (4 ppb penicillin G in milk): 5
Intensity 1st band (5 ppb penicillin G in milk): 3
Intensity 1st band (6 ppb penicillin G in milk): 2
Intensity 1st band (8 ppb penicillin G in milk): 1
Intensity 1st band (10 ppb penicillin G in milk): 0
lowest concentration detected in a milk sample (in 5 minutes, positive when first band is less intense than reference band): 4 ppb

Reference: patent US20040096356A1, “Assay device for determining analytes in a liquid dairy product” (priority 1997, published 2004)
